Test results reported in US5312919A, “Photooxidation products and derivatives thereof of merocyanine-540, their preparation and uses” (priority 1992, dated 1994).
Read-outs that look alike come from different tables or passages of the source.

Columns and labels:
Type in all cases: cell-based
[1] = test system: human immunodeficiency virus (HIV-1); assay: Inactivation of cell free human immunodeficiency virus (viability of MT-4 target cells, MTT assay)
Method: (§1) Preactivated MC 540 is abbreviated as pMC 540. […] 52: 831-38 (1990); and T. Mosmann, J. Immulog. Methods 65: 55-63 (1983).
Cell free human immunodeficiency virus (HIV-1) was either left untreated or treated with indicated doses of Merocil or Merodantoin for one hour at 37° C. and added to MT-4 target cells. After 4 hour incubation at 37° C., the cells were washed three times and further incubated in drug free fresh growth medium (complete RPMI-1640) at 37° C. for 4 days. On day four, 50% of the culture supernatant was replaced with fresh growth medium to prevent cell death due to possible nutrient depletion. The viability of the cell was determined on day 11 by MTT assay. […] The viability of the MT-4 cells was not affected by Merocil or Merodantoin under the experimental conditions described above.

[2] = test system: BT-20 (breast, adenocarcinoma); assay: Inhibition of cell proliferation, BT-20 (MTT assay); settings: Homo sapiens; for inhibition at 1.56 µg/mL: 1.56 μg/ml; for inhibition at 1.56 µg/mL / inhibition at 3.13 µg/mL / inhibition at 6.25 µg/mL / inhibition at 12.5 µg/mL: read-out: % inhibition of cell proliferation; for inhibition at 3.13 µg/mL: 3.13 μg/ml; for inhibition at 6.25 µg/mL: 6.25 μg/ml; for inhibition at 12.5 µg/mL: 12.5 μg/ml; for inhibition at 25 µg/mL: 25.0 μg/ml
Source text: Preactivated MC 540 is abbreviated as pMC 540. […] 52: 831-38 (1990); and T. Mosmann, J. Immulog. Methods 65: 55-63 (1983). […]

[3] = Cytotoxicity on normal human peripheral blood mononuclear cells (trypan blue dye exclusion); settings: human, peripheral blood mononuclear cells, overnight, 37° C., read-out: % cell kill (mean ± S.E.M.)
Method: (§2) Preactivated MC 540 is abbreviated as pMC 540.
(§3) Merocil and Merodantoin were dissolved in cremophor EL whereas pMC 540 was prepared in 10% aqueous ethanol. […] Fresh human peripheral mononucleas cells (1×10^6 cells/ml) were treated with indicated concentration of compounds. After overnight incubation at 37° C., cell viability was determined by trypan blue dye exclusion method.

[4] = test system: normal human peripheral blood mononuclear cells; assay: as above; settings: doses of Table 1
Method: as §2, §3

[5] = test system: C-33A (carcinoma cervix, human); assay: Inhibition of cell proliferation, C-33A (MTT assay); settings: for inhibition at 1.56 µg/mL: 1.56 μg/ml; for inhibition at 1.56 µg/mL / inhibition at 3.13 µg/mL / inhibition at 6.25 µg/mL / inhibition at 12.5 µg/mL: read-out: % inhibition of cell proliferation; for inhibition at 3.13 µg/mL: 3.13 μg/ml; for inhibition at 6.25 µg/mL: 6.25 μg/ml; for inhibition at 12.5 µg/mL: 12.5 μg/ml; for inhibition at 25 µg/mL: 25.0 μg/ml
Method: as §1
(§4) Each cell type (1×10^6 cells/ml; in triplicate) was treated with indicated concentrations of merocil or merodantoin. After overnight (20 hr.) or 5 day incubation periods, the cell viability was determined by MTT assay and calculated as a percentage of untreated controls. The toxicity in vehicle only (cremophor EL) controls was not detectable at highest dose tested.

[6] = test system: U266B1 (myeloma); assay: Inhibition of cell proliferation, U266B1 (MTT assay); settings: 24 hr.
Method: as §1
(§5) Each cell type (1×10^6 cells/ml; in triplicate) was treated with indicated concentrations of merocil or merodantoin. […] The cytotoxicity in vehicle only (cremophor EL) controls was not detectable at highest dose tested.

[7] = test system: DU 145 (prostate, carcinoma, human); assay: Inhibition of cell proliferation, DU 145 (MTT assay); settings: for inhibition at 1.56 µg/mL / inhibition at 3.13 µg/mL / inhibition at 6.25 µg/mL / inhibition at 12.5 µg/mL: read-out: % inhibition of cell proliferation
Method: as §1, §4

[8] = test system: JEG-3 (choriocarcinoma, human); assay: Inhibition of cell proliferation, JEG-3 (MTT assay); settings: for inhibition at 1.56 µg/mL / inhibition at 3.13 µg/mL / inhibition at 6.25 µg/mL / inhibition at 12.5 µg/mL: read-out: % inhibition of cell proliferation
Method: as §1, §4

[9] = test system: MS 751 (cervix, carcinoma, human); assay: Inhibition of cell proliferation, MS 751 (MTT assay); settings: for inhibition at 1.56 µg/mL / inhibition at 3.13 µg/mL / inhibition at 6.25 µg/mL / inhibition at 12.5 µg/mL: read-out: % inhibition of cell proliferation
Method: as §1, §4

[10] = test system: 8226 (multiple myeloma); assay: Inhibition of cell proliferation, 8226 (MTT assay); settings: 24 hr.
Method: as §1, §5

[11] = test system: certain tumor cells; assay: Inhibition of proliferation of tumor cells (overall conclusion)
Source text: as §1

[12] = test system: human Burkitt lymphoma Daudi cells; assay: Cytotoxic effects on human Burkitt lymphoma Daudi cells (MTT assay)
Method: Human Burkitt Lymphoma Daudi cells (1×10^6 cells/ml) were treated with different concentrations of Merodantoin. After overnight incubation at 37° C., the tumor cells kill was determined by MTT assay.
Human Burkitt Lymphoma Daudi cells (1×10^6 cells/ml) were treated with different concentrations of Merocil. After overnight incubation at 37° C., the tumor cells kill was determined by MTT assay.
Each cell type (1×10^6 cells/ml; in triplicate) was treated with indicated concentrations of Merocil or Merodantoin. After overnight (20 hr.) or 5 day incubation periods, the cell viability was determined by MTT assay and calculated as a percentage of untreated controls.

[13] = 1.56 μg/ml, read-out: % inhibition of cell proliferation
[14] = 3.13 μg/ml, read-out: % inhibition of cell proliferation
[15] = 6.25 μg/ml, read-out: % inhibition of cell proliferation
[16] = 12.5 μg/ml, read-out: % inhibition of cell proliferation

Structure (SMILES): CCCCN1C(=O)C(=O)N(CCCC)C1=S [Merodantoin, N,N'-Dibutyl-2-thio-4,5-imidazolindion]
- inactivation of cell free HIV ([1]; 75 μg/ml dose): virtually complete inactivation of the virus
- viability at 25 µg/mL ([1]; Human immunodeficiency virus 1, MT4, 264 h, MT-4 cells + HIV treated with 25 μg/ml, one hour 37° C., day 11, untreated HIV-1 36.75): 73.5%
- viability at 50 µg/mL ([1]; Human immunodeficiency virus 1, MT4, 264 h, MT-4 cells + HIV treated with 50 μg/ml, one hour 37° C., day 11, untreated HIV-1 36.75): 94.3%
- viability at 75 µg/mL ([1]; Human immunodeficiency virus 1, MT4, 264 h, MT-4 cells + HIV treated with 75 μg/ml, one hour 37° C., day 11, untreated HIV-1 36.75): 102%
- inactivating human immunodeficiency virus (HIV-1) ([1]; conclusion): effective
- inhibition at 1.56 µg/mL ([2]; BT-20, 96 h, 4 days): 19%
- inhibition at 3.13 µg/mL ([2]; BT-20, 96 h, 4 days): 52%
- inhibition at 6.25 µg/mL ([2]; BT-20, 96 h, 4 days): 20%
- inhibition at 12.5 µg/mL ([2]; BT-20, 96 h, 4 days): 12%
- inhibition at 25 µg/mL ([2]; BT-20, 96 h, 4 days): 73%
- inhibition at 1.56 µg/mL ([2]; BT-20, 48 hr.): 0%
- inhibition at 3.13 µg/mL ([2]; BT-20, 48 hr.): 0%
- inhibition at 6.25 µg/mL ([2]; BT-20, 48 hr.): 0%
- inhibition at 12.5 µg/mL ([2]; BT-20, 48 hr.): 8%
- inhibition at 25 µg/mL ([2]; BT-20, 48 hr.): 26%
- cytotoxicity ([3]; 1.56 μg/ml): 4.33 ± 1.07%
- cytotoxicity ([3]; 3.13 μg/ml): 3.67 ± 0.51%
- cytotoxicity ([3]; 6.25 μg/ml): 5.33 ± 0.84%
- cytotoxicity ([3]; 12.5 μg/ml): 11.3 ± 1.83%
- cytotoxicity ([3]; 25.0 μg/ml): 25.7 ± 0.51%
- toxicity to normal human peripheral blood mononuclear cells [4]: relatively non-toxic
- inhibition at 1.56 µg/mL ([5]; 20 hr.): 16%
- inhibition at 3.13 µg/mL ([5]; 20 hr.): 29%
- inhibition at 6.25 µg/mL ([5]; 20 hr.): 36%
- inhibition at 12.5 µg/mL ([5]; 20 hr.): 49%
- inhibition at 25 µg/mL ([5]; 20 hr.): 56%
- inhibition at 1.56 µg/mL ([5]; 120 h, 5 days): 11%
- inhibition at 3.13 µg/mL ([5]; 120 h, 5 days): 34%
- inhibition at 6.25 µg/mL ([5]; 120 h, 5 days): 86%
- inhibition at 12.5 µg/mL ([5]; 120 h, 5 days): 63%
- inhibition at 25 µg/mL ([5]; 120 h, 5 days): 91%
- inhibition at 1.56 µg/mL [6, 13]: 8%
- inhibition at 3.13 µg/mL [6, 14]: 10%
- inhibition at 6.25 µg/mL [6, 15]: 10%
- inhibition at 12.5 µg/mL [6, 16]: 12%
- inhibition at 25 µg/mL ([6]; 25.0 μg/ml): 12%
- inhibition at 1.56 µg/mL ([7]; DU-145, 1.56 μg/ml, 20 hr.): 0%
- inhibition at 3.13 µg/mL ([7]; DU-145, 3.13 μg/ml, 20 hr.): 1%
- inhibition at 6.25 µg/mL ([7]; DU-145, 6.25 μg/ml, 20 hr.): 8%
- inhibition at 12.5 µg/mL ([7]; DU-145, 12.5 μg/ml, 20 hr.): 9%
- inhibition at 25 µg/mL ([7]; DU-145, 25.0 μg/ml, 20 hr.): 11%
- inhibition at 1.56 µg/mL ([7]; DU-145, 120 h, 1.56 μg/ml, 5 days): 54%
- inhibition at 3.13 µg/mL ([7]; DU-145, 120 h, 3.13 μg/ml, 5 days): 85%
- inhibition at 6.25 µg/mL ([7]; DU-145, 120 h, 6.25 μg/ml, 5 days): 99%
- inhibition at 12.5 µg/mL ([7]; DU-145, 120 h, 12.5 μg/ml, 5 days): 100%
- inhibition at 25 µg/mL ([7]; DU-145, 120 h, 25.0 μg/ml, 5 days): 100%
- inhibition at 1.56 µg/mL ([8]; JEG-3, 1.56 μg/ml, 20 hr.): 15%
- inhibition at 3.13 µg/mL ([8]; JEG-3, 3.13 μg/ml, 20 hr.): 53%
- inhibition at 6.25 µg/mL ([8]; JEG-3, 6.25 μg/ml, 20 hr.): 88%
- inhibition at 12.5 µg/mL ([8]; JEG-3, 12.5 μg/ml, 20 hr.): 100%
- inhibition at 25 µg/mL ([8]; JEG-3, 25.0 μg/ml, 20 hr.): 100%
- inhibition at 1.56 µg/mL ([8]; JEG-3, 120 h, 1.56 μg/ml, 5 days): 18%
- inhibition at 3.13 µg/mL ([8]; JEG-3, 120 h, 3.13 μg/ml, 5 days): 38%
- inhibition at 6.25 µg/mL ([8]; JEG-3, 120 h, 6.25 μg/ml, 5 days): 91%
- inhibition at 12.5 µg/mL ([8]; JEG-3, 120 h, 12.5 μg/ml, 5 days): 100%
- inhibition at 25 µg/mL ([8]; JEG-3, 120 h, 25.0 μg/ml, 5 days): 100%
- inhibition at 1.56 µg/mL ([9]; MS751, 1.56 μg/ml, 20 hr.): 8%
- inhibition at 3.13 µg/mL ([9]; MS751, 3.13 μg/ml, 20 hr.): 24%
- inhibition at 6.25 µg/mL ([9]; MS751, 6.25 μg/ml, 20 hr.): 20%
- inhibition at 12.5 µg/mL ([9]; MS751, 12.5 μg/ml, 20 hr.): 28%
- inhibition at 25 µg/mL ([9]; MS751, 25.0 μg/ml, 20 hr.): 41%
- inhibition at 1.56 µg/mL ([9]; MS751, 120 h, 1.56 μg/ml, 5 days): 11%
- inhibition at 3.13 µg/mL ([9]; MS751, 120 h, 3.13 μg/ml, 5 days): 23%
- inhibition at 6.25 µg/mL ([9]; MS751, 120 h, 6.25 μg/ml, 5 days): 66%
- inhibition at 12.5 µg/mL ([9]; MS751, 120 h, 12.5 μg/ml, 5 days): 90%
- inhibition at 25 µg/mL ([9]; MS751, 120 h, 25.0 μg/ml, 5 days): 100%
- inhibition at 1.56 µg/mL [10, 13]: 20%
- inhibition at 3.13 µg/mL [10, 14]: 16%
- inhibition at 6.25 µg/mL [10, 15]: 20%
- inhibition at 12.5 µg/mL [10, 16]: 30%
- inhibition at 25 µg/mL ([10]; 25.0 μg/ml): 46%
- inhibiting the proliferation of certain tumor cells [11]: effective
- growth inhibition of cultured Daudi lymphoma cells ([12]; 25 μg/ml): virtually complete growth inhibition
- cytotoxicity at 1.56 µg/mL ([12]; Homo sapiens, Daudi, 1.56 μg/ml, overnight, 37° C., read-out: % Cell Kill (means ± S.D.)): 2.75 ± 3.2%
- cytotoxicity at 3.13 µg/mL ([12]; Homo sapiens, Daudi, 3.13 μg/ml, overnight, 37° C., read-out: % Cell Kill (means ± S.D.)): 6.25 ± 2.99%
- cytotoxicity at 6.25 µg/mL ([12]; Homo sapiens, Daudi, 6.25 μg/ml, overnight, 37° C., read-out: % Cell Kill (means ± S.D.)): 9.75 ± 1.71%
- cytotoxicity at 12.5 µg/mL ([12]; Homo sapiens, Daudi, 12.50 μg/ml, overnight, 37° C., read-out: % Cell Kill (means ± S.D.)): 42 ± 8.68%
- cytotoxicity at 25 µg/mL ([12]; Homo sapiens, Daudi, 25.00 μg/ml, overnight, 37° C., read-out: % Cell Kill (means ± S.D.)): 100%
